Values quoted from earlier work, collected in patent US6451357B1, “Method for purification of aloesin” (Unigen Pharmaceuticals, Inc., priority 2001, dated 2002).

Experiments:
tyrosinase [1] = conditions: Lineweaver Burk diagram
tyrosinase [2] = conditions: in vitro
[3] = test system: de-pigmentation of the skin; conditions: relative to hydroquinone

type of tyrosinase inhibition (tyrosinase [1]) | tyrosinase inhibition in words (tyrosinase [2]) | IC50 (tyrosinase [2]; substrate L-DOPA, read-out: concentration capable of 50% inhibition of tyrosinase activity) [µM] | Compound | quantity required to achieve a similar effect compared to the quantity of hydroquinone used [3]
non-competitive inhibitor |  |  | COc1cc(/C=C/C(=O)O[C@@H]2[C@@H](O)[C@H](O)[C@@H](CO)O[C@H]2c2c(O)cc(C)c3c(=O)cc(CC(C)=O)oc23)ccc1O [2″-feruloylaloesin, 2″-O-feruloylaloesin] | 
competitive inhibitor | strong inhibitor | 200 | CC(=O)Cc1cc(=O)c2c(C)cc(O)c([C@@H]3O[C@H](CO)[C@@H](O)[C@H](O)[C@H]3O)c2o1 [aloesin] | 
 |  |  | OC[C@H]1O[C@@H](Oc2ccc(O)cc2)[C@H](O)[C@@H](O)[C@@H]1O [arbutin] | over 100 times
 |  |  | O=C1O[C@H]([C@@H](O)CO)C(O)=C1O [ascorbic acid] | 17 times
